In one data set the test system is rat tibia. Put plainly: Rat tibia healing of surgical wounds, micro CT. The format is in vivo. As to conditions: for reduction in wound size vs control: medial cortex. The source says: Rat tibia—healing of surgical wounds. Twenty female SD rats (˜8 weeks, body weight˜180 g) received a surgical hole with ˜2.0 mm in diameter in the left and right tibiae (Zhang P., et al., Knee loading accelerates bone healing in mice, J. Bone Miner. Res. 22:1979-1987 (2007)). The hole was located on the medial surface ˜15 mm distant apart from the proximal end of the tibia (Chiba S., et al., Molecular analysis of defect healing in rat diaphyseal bone, J. Vet. Med. Sci. 63:603-606 (2001)). During the first 5 days, 100 μl of salubrinal solution at dosage of 0.025 mg/kg was injected into the left limb and a PBS solution (vehicle control) in the right limb (Wang J W, et al., Locally applied simvastatin promotes fracture healing in ovariectomized rat, Osteoporosis Int. 18:1641-1650 (2007)). Injection was subcutaneous targeted to the wound site. Rats were sacrificed on days 10 or 20 after surgery, and the axial and transverse length of the holes as well as cortical thickness (1.5 mm proximal and distal to the center of the hole) were determined with micro CT imaging (μCT-20, Scanco Medical AG) (FIG. 16).

The subject of a further data set is MLO-A5 osteocyte cells. Put plainly: mRNA levels by real-time PCR in MLO-A5 osteocyte cells. Type of data set: cell-based. The settings on record: 100 nM-50 μM, 1-24 h. As for the experimental part: (§1) Responses to Administration of Salubrinal—In vitro responses to salubrinal: In order to evaluate the effects of salubrinal, MC3T3 E1 osteoblast-like cells and MLO-A5 osteocyte cells (Barragan-Adjemian, C., et al., “Mechanism by which MLO-A5 late osteoblasts/early osteocytes mineralize in culture: similarities with mineralization of lamellar bone,” Calcif. Tissue Int. 79:340-353 (2006)) were incubated with salubrinal at 100 nM-50 μM for 1-24 h. The mRNA levels of the selected genes, TF4, ATF3, Osteocalcin (OCN), and CHOP, were determined by real-time PCR. […] In MC3T3 cells, for instance, the Osteocalcin mRNA level, which is regulated by ATF4 and Runx2 (Xiao et al. 2005), was elevated 11.8±0.2 fold at 10 μM salubrinal in 24 h.
On the technique in general: In qPCR the cycle at which signal appears reflects the starting amount.

In data set [1] the test system is ATF4, ATF3, CHOP, Runx2, Osterix, Rank 1, Osteocalcin mRNA. Put plainly: mRNA expression levels by real-time PCR in MC3T3 cells. Type of data set: cell-based, mouse. As for the experimental part:
Responses to Administration of Thapsigargin—Upregulation of transcription factors linked to bone formation as well as PERK: The effects of 10 nM thapsigargin on mRNA expression levels of ISR-linked genes (ATF4, ATF3, and CHOP) as well as genes involved in bone remodeling (Runx2, Osterix, and Rank 1), were examined (FIG. 7). […] Out of 4 transcription factors (ATF4, ATF3, Runx2, and Osterix), the level of ATF4 mRNA was elevated 2-4 fold throughout the treatments. […] The mRNA level of type 1 collagen was elevated 5 h and 10 h for T1h (1 h exposure at 10 nM).
as §1

In a further data set the test system is femora of C57BL/6 mice. Put plainly: Intramedullary injection into mouse femur, BMD and BMC. Type of data set: in vivo. How it is done:
Responses to Administration of Salubrinal—In Vivo Responses to salubrinal: In order to evaluate the effects of salubrinal in vivo, salubrinal was injected into an intramedullary cavity of the left femora of C57BL/6 mice and alterations in bone mineral density (BMD) and bone mineral content (BMC) were determined. There were 9 salubrinal treated mice as well as 9 placebo mice (injection of PBS). All mice received 4 injections of either salubrinal or PBS in the left femur, while the right femur was used as contralateral control. In four consecutive injections with a 0.5-inch #26-gauge needle and a Hamilton micro-syringe, the laterial side was used on the 1st and 3rd injections and the medial side on the 2nd and 4th injections. An injection volume was 20 μl for salubrinal or PBS, and the salubrinal concentration was 50 μM. […] At the time of harvest (2 wks after the 1st injection), an increase in body weight in Salubrinal group (0.80±0.13 g) was higher than that in Placebo group (0.28±0.15 g; p<0.05). Harvested bone samples were analyzed with PIXImus (version 1.4, GE Medical System Lunar) for determination of BMD and BMC.

In a further data set the test system is rat femur. Put plainly: Rat femur healing of surgical wounds, micro CT. The format is in vivo. The settings on record: for increase in cortical thickness vs control: anterior hole; for reduction in wound size vs control: anterior holes; for increase in cortical thickness: posterior hole. How it is done: Rat femur—healing of surgical wounds. A surgical hole with ˜2.0 mm in diameter was generated in the left and right femurs of twenty female SD rats (˜8 weeks, body weight ˜180 g). The holes were drilled through the femur from the anterior surface to the opposite cortex (posterior surface) in the middle of the femur. During the first 5 days, 100 μl of salubrinal solution at dosage of 0.025 mg/kg was injected subcutaneously to the left limb and a PBS solution (vehicle control) in the right limb. The injection site was closed to the anterior surgical hole. Rats were sacrificed on days 10 or 20 after surgery, and the axial and transverse hole sizes as well as cortical thickness (1.5 mm proximal and distal to the center of the hole) were determined with micro CT. […] Regarding the anterior holes, the size of the wounds 10 days after surgery was smaller in the salubrinal treated group by 10.8% (1.905±0.018 mm in control and 1.700±0.021 mm in salubrinal; p<0.001). The size in 20 day samples was further decreased by 18.0% (1.812±0.017 mm in control and 1.486±0.026 mm in salubrinal; p<0.001). […] Note that the reduction in the wound size on day 20 was more significant than those on day 10 in both the anterior and posterior holes (both p<0.001) (FIG. 20B).

In a further data set the test system is rat brain. The settings on record: intra-cerebroventricular or intra-peritoneal administration; cited from earlier work.
The next data set deals with mouse tibia. Put plainly: Mouse tibia bone formation, ankle loading plus local salubrinal. The format is in vivo. The settings on record: 0.025 mg/kg (100 μM) salubrinal plus ankle loading, 5 days. How it is done: Mouse tibia-bone formation: Twenty C57/BL/6 Female Mice (˜8 weeks, body weight˜18 g) were employed to examine the combined effects of ankle loading and local administration of salubrinal to the tibia (Zhang P, et al., Salubrinal stimulates anabolic responses in mouse femora, 55th Ann Meeting ORS (2009)). Local administration was targeted into a bone marrow cavity from the proximal tibia. A total volume of 20 μl PBS was injected to the left hindlimb with or without 0.025 mg/kg (100 μM) salubrinal (Calbiochem) using a micro-syringe with a 0.5-inch #26-gauge needle (Worsham D N, et al., In vivo gene transfer into adult stem cells in unconditioned mice by in situ delivery of a lentiviral vector, Mol. Ther. 14:514-24 (2006); Zhu Y, et al., eIF-2α protects brainstem motoneurons in a murine model of sleep apnea, J. Neurosci. 28:2168-78 (2008)). In examination of the combined effects of mechanical loading and salubrinal administration, ankle loading was given for 5 consecutive days after administration of salubrinal on each day. The mouse was placed in an anesthetic induction chamber to cause sedation and then mask-anesthetized using 1.5% isoflurane. With a custom-made piezoelectric mechanical loader, loads were applied to the left ankle for 5 min/day in the lateral-medial direction. The loading frequency was 5 Hz, and the peak-to-peak force was 0.5 N (FIG. 15). […]

The next data set has as its system brainstem motoneurons. The settings on record: hypoxia and reoxygenation events; cited from earlier work.
In another data set the test system is rat β-cells. The settings on record: 5-75 μM, dosage dependent; cited from earlier work.
In data set [2] the test system is CHOP, pro-caspase 3, cleaved caspase 3. Put plainly: Protein levels of CHOP, pro-caspase 3 and cleaved caspase 3 (induction of apoptosis). The format is cell-based, mouse. The settings on record: 10 nM. How it is done:
(§2) At higher doses of 10 and 100 nM, the levels of eIF2α-p and ATF4 proteins were elevated (FIG. 5A). Thapsigarin is known to induce apoptosis when administered above a threshold concentration.

The subject of data set [3] is MC3T3 cells. Put plainly: Microarray analysis (GSEA, IPA) of thapsigargin-induced mild ER stress. As to conditions: 1 h exposure at 10 nM. The format is cell-based, mouse. How it is done: Responses to Administration of Thapsigargin—Linkage to hypoxia through microarray analysis: In response to thapsigargin-induced mild ER stress (1 h exposure at 10 nM), microarray experiments were conducted. First, Gene Set Enrichment Analysis (GSEA; Broad Institute) was used to identify a group of genes that shared common biological functions (Hamamura, K., et al., “Microarray analysis of thapsigargin-induced stress to the endoplasmic reticulum of mouse osteoblasts,” J. Bone Miner. Metab. 26:231-240 (2008)). For each group of gene sets, GSEA calculates an enrichment score and evaluates statistical significance in the enrichment score. […] The highest normalized enrichment score was given to the gene set, HYPOXIA_UP. All genes present in the array were reordered based on a ranked list-metric value (a mean expression ratio between the thapsigargin-treated and untreated samples), and the best enrichment score of “−0.66” was assigned. Note that if the expression ratio is random among the genes in HYPOXIA_UP, the expected enrichment score is ±0.23. The enrichment score, ranked […] and P (enrichment score) supported the conclusions drawn from the software program output. […]

Data set [4] relates to MC3T3 cells. Type of data set: cell-based, mouse.
Data set [5] concerns eIF2α-p and ATF4 proteins. Put plainly: Western blot of eIF2α-p and ATF4 proteins in MC3T3 E1 osteoblast-like cells. The format is cell-based, mouse. How it is done:
as §2
MS3T3 osteoblast-like cells were used to evaluate the level of eIF2α-p (phosphorylated form of eukaryotic initiation factor 2—subunit α) in response to salubrinal.
A general note: Immunoblotting shows a protein as a band on a membrane.

The test system of data set [6] is PERK, PKR, p-38 MAPK, ERK1/2. Put plainly: Phosphorylation of eIF2α kinases and MAP kinases. Type of data set: cell-based, mouse. As to conditions: 10 nM, 1 h exposure. How it is done: In response to T1h (1 h exposure at 10 nM), the level of phosphorylation of two eIF2α kinases (PERK and PKR), and two MAP kinases (p-38 MAPK and ERK1/2) was examined (FIG. 8).
Setting [7] is: 10 days after surgery, 0.025 mg/kg.

For the compound `O=C(/C=C/c1ccccc1)NC(NC(=S)Nc1cccc2cccnc12)C(Cl)(Cl)Cl` (stereo not drawn) [salubrinal], the “increase in cortical thickness vs control” value amounted to 11.6% in the data set on rat tibia (day 10), 20.3% in the data set with rat tibia (day 20), 11.0% in the data set with rat femur (day 10) and 25.7% in the data set on rat femur (day 20). Besides, the “reduction in wound size vs control” value with rat tibia (setting [7]) is given as 12.3%; in the data set with rat tibia (20 days), 19.1%; in the data set on rat femur (setting [7]), 10.8%; in the data set with rat femur (20 days) it was 18.0%. The “mRNA levels of ATF4, ATF3, Osteocalcin and CHOP” value in the data set with MLO-A5 osteocyte cells is listed as “did not show any significant alterations”; in data set [1] (MC3T3 cells, 100 nM-50 μM, 1-24 h), “upregulated”. The “BMD of injected femur” value in the data set with femora of C57BL/6 mice (20 μl 50 μM injection, 4 injections, mean±s.e.m.) is on record as 0.0456±0.0011 g/cm^2. In addition, the “BMD compared to contralateral control” value in the data set on femora of C57BL/6 mice (p=0.02) is “increased”. Besides, in the data set with femora of C57BL/6 mice (p=0.09), the “BMC compared to contralateral control” value is on record as “showed a trend to elevate”. The “increase in cortical thickness” value with rat femur (postoperative 10 days) turned out to be 13.8%; with rat femur (postoperative 20 days) it was 21.3%. Further, the “excitotoxic neuronal death in vivo” value in the data set on rat brain is on record as “decreased excitotoxic neuronal death”. For the same compound, the “tibia BMC” value with mouse tibia came to 0.0154 ± 0.0004 g. Further, the “tibia BMD” value with mouse tibia came to 0.0443±0.0011 g/cm^2. In addition, the motoneuronal injury result in the data set with brainstem motoneurons is reported as “suppressed motoneuronal injury”. The apoptosis entry in the data set with rat β-cells is recorded as “induced apoptosis”.

As to `C/C=C(/C)C(=O)O[C@H]1C(C)=C2[C@H]([C@@H]1OC(=O)CCCCCCC)[C@@](C)(OC(C)=O)C[C@H](OC(=O)CCC)[C@@]1(O)[C@H]2OC(=O)[C@@]1(C)O` [thapsigargin], in [1] (10 nM), the “increase in Runx2 mRNA” value is “started at 3 h and peaked at 5 h”; the “mRNA level of CHOP” value is recorded as 10-35 fold. Moreover, the “mRNA level of type 1 collagen” value in data set [1] (10 nM, 1 h exposure, 5 h and 10 h) is given as “elevated”. In data set [1] (10 nM, 3 h for T2h and 10 h for T3h), the “Rank 1 mRNA” value is “significantly up”. In addition, the “level of Osteocalcin mRNA” value in data set [1] (1-100 nM for 1-24 h) is reported as “did not increase”. The “level of active (cleaved) caspase 3” value in data set [2] is reported as “increased after 24 h”. In addition, in [2] (higher for 5, 10 and 24 h), the “level of CHOP protein” value is on record as “started to increase after 3 h”. In addition, the “core enrichment genes in HYPOXIA_UP vs control” value with MC3T3 cells [3] is recorded as “significantly upregulated”. Also, the “numbers of live and dead cells” value with MC3T3 cells [4] (10 nM, 1 h incubation) was “does not alter”. In addition, the “cell number or mortality vs control cells” value with MC3T3 cells [4] (1 h exposure at 10 nM) is “no significant difference”. For the same compound, the “levels of eIF2α-p and ATF4 proteins” value in data set [5] (10 and 100 nM) is listed as “elevated”. In addition, in [5] (dosages below 0.1 nM), the “eIF2α-p and ATF4 protein expression” value is on record as “no detectable upregulation”. Also, in data set [6], the “level of p-ERK1/2” value was “not altered”, the “level of p-PERK” value is listed as “elevated”, the “level of p-PKR” value is given as “not altered” and the “level of p-p38 MAPK” value was “elevated”.

The values above are taken from US9056105B2, “Method for treatment of bone diseases and fractures” (INDIANA UNIVERSITY RESEARCH AND TECHNOLOGY CORPORATION, priority 2008, dated 2015).
